Values after ≈ are worked out from the molar mass of the structure shown. Read-outs that look alike come from different tables or passages of the source.
Tests used:
rat TrxR [1] = target: T1, rat TrxR (Rattus norvegicus, UniProt O89049); assay: biochemical
T1 sequence (O89049 1-499): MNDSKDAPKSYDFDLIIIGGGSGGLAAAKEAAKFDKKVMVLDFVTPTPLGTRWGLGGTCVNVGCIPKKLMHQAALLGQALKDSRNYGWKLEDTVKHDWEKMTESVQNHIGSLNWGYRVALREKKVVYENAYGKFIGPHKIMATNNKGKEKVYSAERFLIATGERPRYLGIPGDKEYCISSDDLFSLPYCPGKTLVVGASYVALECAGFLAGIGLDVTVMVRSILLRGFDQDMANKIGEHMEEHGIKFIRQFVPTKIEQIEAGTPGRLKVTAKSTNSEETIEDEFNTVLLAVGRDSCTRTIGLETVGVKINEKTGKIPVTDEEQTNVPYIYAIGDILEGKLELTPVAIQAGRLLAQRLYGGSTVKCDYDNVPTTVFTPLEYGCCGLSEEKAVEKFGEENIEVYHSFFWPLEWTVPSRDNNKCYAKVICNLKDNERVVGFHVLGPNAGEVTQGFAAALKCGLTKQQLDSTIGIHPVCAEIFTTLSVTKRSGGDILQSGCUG

rat TrxR [2] = target: T1, rat TrxR
[3] = target: T2, Gpx from bovine erythrocytes (Bos taurus, UniProt P00435); type: biochemical
T2 sequence (P00435 1-205): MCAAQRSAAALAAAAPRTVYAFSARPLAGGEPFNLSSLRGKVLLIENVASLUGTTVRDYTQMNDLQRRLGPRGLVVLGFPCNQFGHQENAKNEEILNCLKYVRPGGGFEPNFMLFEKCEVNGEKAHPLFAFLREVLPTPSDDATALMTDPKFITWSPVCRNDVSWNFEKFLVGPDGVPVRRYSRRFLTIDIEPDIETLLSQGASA

[4] = target: T3, TrxR activity in HeLa cells (Homo sapiens, UniProt Q16881); assay: cell-based; details: for inhibition of cellular TrxR activity: 12 h
T3 sequence (Q16881 1-499 isoform Q16881-5): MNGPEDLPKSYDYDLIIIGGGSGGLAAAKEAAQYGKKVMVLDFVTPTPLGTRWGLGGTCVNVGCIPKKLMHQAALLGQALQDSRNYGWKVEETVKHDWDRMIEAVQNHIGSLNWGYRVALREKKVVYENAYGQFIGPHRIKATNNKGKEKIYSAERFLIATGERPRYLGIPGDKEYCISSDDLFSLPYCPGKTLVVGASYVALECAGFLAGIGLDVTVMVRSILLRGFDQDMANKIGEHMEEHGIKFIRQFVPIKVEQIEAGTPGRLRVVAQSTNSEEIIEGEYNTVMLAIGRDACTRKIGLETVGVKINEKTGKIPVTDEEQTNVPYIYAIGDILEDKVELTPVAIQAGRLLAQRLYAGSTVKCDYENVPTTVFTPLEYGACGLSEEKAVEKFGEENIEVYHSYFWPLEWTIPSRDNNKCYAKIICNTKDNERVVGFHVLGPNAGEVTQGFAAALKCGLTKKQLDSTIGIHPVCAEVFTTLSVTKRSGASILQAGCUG

[5] = target: T4, TrxR C-terminus active site Sec and Cys (Rattus norvegicus, UniProt O89049)
T4 sequence (O89049 1-499): T1 sequence (O89049 1-499)

HeLa = details: three day continuous treatment; cited from earlier work
GR = details: cited from earlier work
TrxR = details: cited from earlier work
HeLa cells = assay: Cell viability MTS assay; type: cell-based, human; details: 2 and 3 μM selenite
[6] = HeLa, read-out: inhibition of cellular TrxR activity

Structure (SMILES): CC1=CC2=C(C)C3(CC3)[C@@](C)(O)C(=O)C2=C1 [AF, acylfulvene]
- IC50 (rat TrxR [1]): 7.3 µM
- inhibition at 50 µM (rat TrxR [1]; read-out: TrxR activity inhibited within five minutes): > 60%
- reversibility of TrxR inhibition (gel filtration) (rat TrxR [2]): irreversible
- drug concentration at which an increase in Gpx activity was observed [3]: ≥ 20 µM
- inhibition at 0.2 µM [4, 6]: 20%
- inhibition at 1 µM [4, 6]: 35%
- inhibition at 4 µM [4, 6]: 60%
- intensity of BIAM label ([5]; pH 6.5): diminished in intensity
- BIAM labeling ([5]; pH 8.5): almost abolished

Structure (SMILES): CC1=C(CO)C2=C(C)C3(CC3)[C@@](C)(O)C(=O)C2=C1 [HMAF, hydroxymethylacylfulvene]
- TrxR activity inhibited within five minutes (rat TrxR [2]; 7.5 μM HMAF, pre-reduced TrxR, 25 °C): over 60%
- reversibility of TrxR inhibition (gel filtration) (rat TrxR [2]; 2 h reaction, unbound drug removed by size exclusion column): irreversible
- IC50 (rat TrxR [2]; read-out: IC50, inhibition of DTNB reduction activity of TrxR, NADPH-reduced TrxR (80 nM), 2 h at 25 °C): 0.38 µM
- drug concentration at which an increase in Gpx activity was observed [3]: ≥ 2 µM
- IC50, cytotoxicity (HeLa): 0.02 µg/mL (≈ 0.0812 µM)
- inhibition of cellular TrxR activity ([4]; HeLa cells, 0.2 μM): 20%
- inhibition of cellular TrxR activity ([4]; HeLa cells, 1 μM): 60%
- inhibition of cellular TrxR activity ([4]; HeLa cells, 4 μM): eliminated cellular TrxR activity
- type of GR inhibition (GR): irreversible
- intensity of BIAM label ([5]; pH 6.5 (free Sec), 5 μM HMAF): diminished in intensity
- BIAM labeling ([5]; pH 8.5 (free Cys and Sec), 25 μM HMAF): almost abolished

Structure (SMILES): NC(=O)CI [IAA, iodoacetamide]
- IC50 ([3]; read-out: IC50, inhibition of Gpx activity): 2400 µM

Structure (SMILES): O=C(O)CCCc1ccc(N(CCCl)CCCl)cc1 [chlorambucil]
- IC50, TrxR inhibition (TrxR): micromolar

Structure (SMILES): CC1=C2C(=C[C@@](C)(CO)[C@@H]2O)C(=O)[C@](C)(O)C12CC2 [illudin S, reference compound]
- IC50 (rat TrxR [1]): 260 µM
- inhibition of TrxR without pre-reduction (rat TrxR [2]): no inhibition was observed
- drug concentration at which an increase in Gpx activity was observed [3]: ≥ 1000 µM
- effect on Gpx activity [3]: none of the tested drugs caused a decrease in enzyme activity
- inhibition at 0.2 µM [4, 6]: 20%
- inhibition at 1 µM [4, 6]: 50%

Structure (SMILES): N[C@@H](Cc1ccc(N(CCCl)CCCl)cc1)C(=O)O [melphalan]
- IC50, TrxR inhibition (TrxR): micromolar

Structure (SMILES): O=[Se]([O-])[O-].[Na+].[Na+] [selenite, sodium selenite]
- cytotoxicity of added selenite (cells detached from culture dish) (HeLa cells): caused cytotoxicity

Structure (SMILES): C[S+]([O-])CCCCN=C=S (stereo not shown) [sulforaphane, reference compound]
- effect in preliminary Se plus sulforaphane TrxR co-induction tests ([4]; HeLa cells, data not shown): potentially confounding direct inhibitory properties
